The test system of one test is Anopheles coluzzii. The test can be described thus: Dual-port olfactometer preference test of IAC and IAC blends. It counts as in vivo. To be noted: for behavioural response on supplementing parasite-free odour with the IAC alone: individual IAC, at least two concentrations, with parasite-free odour (socks) vs parasite-free odour alone. As to the method:
Six IAC (heptanal, octanal, nonanal, (E)-2-octenal, (E)-2-decenal and 2-octanone) were tested in a background of odour from the worn nylon socks of twelve parasite-free children (18S qPCR confirmed). Each sock pair was cut into twelve strips after removing the foot part, then 12 bundles were made, each containing a strip from each individual. Bundles were stored at −20° C. until, and between, experiments. IAC were positioned downwind and separated from sock bundles by a metal grid, ensuring no contact. Parasite-free odour (bundles) was tested with or without individual IAC (in 10 μL hexane on filter paper) and against the same but with hexane alone.
Next, we verified whether the IAC could improve a mosquito lure for monitoring or mass trapping of Anopheles. Heptanal, the most promising candidate from the above experiment, was tested as well as two blends: Plas 5 contained the IAC that were associated with parasitological positivity (nonanal, heptanal, octanal, (E)-2-decenal and (E)-2-octenal), and Plas 6 additionally contained the gametocyte-associated 2-octanone (FIG. 3). Each of Plas 5 and Plas 6 were made up in hexane by weighing the appropriate amounts of constituent compounds into a volumetric flask. […] Plas 5 and Plas 6 were tested with the synthetic lure MB5^36 at four concentrations, each decreasing by a factor of 10 from the 100% concentration by serial dilution.
MB5 was presented on nylon strips as described in Menger et al. (2014)^36 (except the five compounds were incubated onto a single 5×26.5 cm nylon strip instead of five narrower strips). 10 μl of the Plas5 or Plas6 blend at 100% or serial dilution was pipetted onto a filter paper and added in the same olfactometer trap.
A triple chamber dual-port olfactometer^59 was used to test the preference of 30 five- to eight-day-old female, non blood-fed Anopheles coluzzii (Suokoko strain^21, rearing procedures as published previously^21) for parasite free odour or MB5, supplemented with IAC or IAC blends, against background odour alone (parasite-free odour or MB5). Mosquitoes were maintained in a release cage prior to testing (for 16-22 hours). Experiments took place during the last four hours of the scotophase under near-dark conditions (<1 lux). Mosquitoes were allowed to fly for 15 minutes, then those that had entered the traps with test/control odours were counted. Each IAC/concentration combination was tested eight-nine times on different days, and each Plas concentration 10-11 times on different days, rotating treatments between the left and right port of the olfactometer. Climatic data (R.H., temperature and air pressure) were recorded in the flight chambers and in the surrounding room.
Generalized linear models (GLMs) were used to test the effect of odours (individual IAC/heptanal/Plas blends) on relative attractiveness (the proportion of mosquitoes selecting the test odour). GLMs were run as described above (statistical analysis, attractiveness of ‘infected odour’ (socks) by cage assays), testing parameters associated with the set-up as additional factors or covariates in the model, and retaining when significant (P<0.05, F-test). Sets of compounds were run in separate models. SPSS® was used for the analyses.

Test [1] has as its system Anopheles coluzzii antennae. The experiment in a line: Gas chromatography-electroantennography (GC-EAG) of pooled odour samples. To be noted: analytes in pooled foot odour extracts; >3 responses of 6/7 repetitions = EAG-active. Here is the method:
Porapak filters were eluted using re-distilled diethyl ether (750 μL), and, to approximate an “average” odour per category, extracts were pooled according to the individual's parasitological status: (1) Plasmodium infection, no gametocytes (2) high-density P. falciparum gametocytes (3) parasite-free individuals, (4) Plasmodium infection, sub-microscopic P. falciparum gametocytes. Aliquots (400 μL) of extracts were mixed, then concentrated (to 60 μL) under a stream of nitrogen (charcoal-filtered). Glassware, charcoal filters and PTFE tubing were cleaned as before.
GC-EAG was conducted during the scotophase, using four- to eight- day-old, unfed female Anopheles coluzzii (N′gousso strain^56). Adults were maintained at 70% RH, with a 12 h light/dark cycle (scotophase 09:00-21:00) and access to 50% glucose solution. The order of testing blends was determined by a 5×5 Latin square (including control blend). The mosquito head was dissected, and the palps, proboscis, and half of the terminal (13th) antennal flagellomere cut off. The indifferent electrode was inserted into the back of the head and the antennal tips guided into the recording electrode to complete the circuit (FIG. 3). Electrodes were hand-pulled glass tips inserted over silver wire (diameter 0.37 mm; Harvard Apparatus, Edenbridge, UK) and filled with Ringers' solution^15. […] The eluate was split to the FID detector and EAG interface at a ratio of 1:1. At the EAG interface, the eluate passed from the heated splitter column to a stream of charcoal filtered, humidified air (flow rate 400 mL/min). This airflow was directed over the antenna at a distance of 5 mm. The signal was amplified ×10,000 by the Intelligent Data Acquisition Controller-4, and signals were analysed using EAD 2000 software (both Syntech®, Hilversum, The Netherlands). Responses were signified by a depolarisation of sufficient amplitude. Peaks that elicited responses in more than 3, of the 6/7 total repetitions, were considered to be EAG-active.

We go through 6 compounds from US20210298297A1, “MOSQUITO ATTRACTANTS” (Wageningen Universiteit, priority 2018, published 2021).

Consider `CCCCCCC(C)=O` [2-octanone], for which, in the test with Anopheles coluzzii, the “behavioural response on supplementing parasite-free odour with the IAC alone” value is given as “did not induce altered behavioural responses”.

For the compound `CCCCCCC/C=C/C=O` [(E)-2-decenal], in the test with Anopheles coluzzii, the “behavioural response on supplementing parasite-free odour with the IAC alone” value is recorded as “did not induce altered behavioural responses”.

For `CCCCC/C=C/C=O` [(E)-2-octenal], in the test with Anopheles coluzzii, the “behavioural response on supplementing parasite-free odour with the IAC alone” value was “did not induce altered behavioural responses”.

Take `CCCCCCC=O` [heptanal]: in test [1], the “antennal (EAG) response” value is recorded as “elicit antennal response”. Further, the “proportion of mosquitoes selecting the test odour (GLM, 95 CI)” value in the test on Anopheles coluzzii (10 μL heptanal at 10^−8 g/mL added to parasite-free odour (socks) vs parasite-free odour alone) is given as 0.60-0.84. The “effect on attractiveness of parasite-free odour” value with Anopheles coluzzii (heptanal at 10^−7 g/mL added to parasite-free odour vs parasite-free odour alone) is listed as “no effect”. Besides, the “attractiveness of MB5 supplemented with the compound relative to control MB5” value in the test on Anopheles coluzzii (three concentrations, data not shown) is on record as “equally attractive”.

In the case of `CCCCCCCCC=O` [nonanal], the “antennal (EAG) response” value in test [1] is listed as “elicit antennal response”. Further, in the test on Anopheles coluzzii, the “behavioural response on supplementing parasite-free odour with the IAC alone” value is “did not induce altered behavioural responses”.

On to `CCCCCCCC=O` [octanal], for which the “antennal (EAG) response” value in test [1] was “elicit antennal response”. Moreover, the “behavioural response on supplementing parasite-free odour with the IAC alone” value in the test with Anopheles coluzzii is “did not induce altered behavioural responses”.
